Assay results as given in patent US20250213735A1, “NEUROPEPTIDE Y1 RECEPTOR (NPY1R) TARGETED THERAPEUTICS AND USES THEREOF” (Radionetics Oncology, Inc., priority 2023, published 2025).
pKi: −log10 of the molar value. Numbered stars: 1 amine (or outer) side, 2 acyl side, 3 side chain; on linkers, the order of the positions; unused ones are H or OH. Square brackets hold non-standard residues; d marks the D form. Peptide text beside a SMILES is read from it. * marks the point of attachment. dArg(Nω-CONH(CH2)2NHCOEt) = CCC(=O)NCCNC(=O)/N=C(/N)NCCC[C@@H](N)C(=O)O; DOTA = O=C(O)CN1CCN(CC(=O)O)CCN(CC(=O)*)CCN(CC(=O)O)CC1; X2 = O=C([C@H](c1cccc(NCCCN[*:1])c1)N1Cc2ccccc2C1)[*:2]; NH(4-OH-benzyl) = Oc1ccc(CN*)cc1; Sar = CNCC(=O)O

These molecules were tested against hNPY1R (Homo sapiens (Human), UniProt P25929) (assay: NPY1R binding assay (SK-N-MC membrane, [125I]-Peptide YY competition)). Conditions: crude SK-N-MC membranes endogenously expressing NPY1R; [125I]-Peptide YY (human) 0.05 nM; 120 min at room temperature; read-out: hNPY1R binding Ki.
Sequence of hNPY1R (P25929 whole entry): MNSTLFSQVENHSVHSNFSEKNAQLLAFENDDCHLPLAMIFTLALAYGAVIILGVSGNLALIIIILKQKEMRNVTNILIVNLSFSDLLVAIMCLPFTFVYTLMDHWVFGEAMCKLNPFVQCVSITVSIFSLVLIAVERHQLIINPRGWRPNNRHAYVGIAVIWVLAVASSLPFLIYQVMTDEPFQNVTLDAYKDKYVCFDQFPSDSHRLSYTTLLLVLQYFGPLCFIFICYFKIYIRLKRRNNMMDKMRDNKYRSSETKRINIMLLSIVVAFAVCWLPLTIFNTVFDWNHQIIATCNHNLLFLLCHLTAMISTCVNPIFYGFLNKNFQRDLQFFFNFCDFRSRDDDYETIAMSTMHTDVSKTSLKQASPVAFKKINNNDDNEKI
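Note: bound radioligand separated by filtration over GF/C filter plates and counted, Ki obtained by non-linear regression.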

| Compound | pKi |
| --- | --- |
| CCC(=O)NCCNC(=O)/N=C(/N)NCCC[C@@H](NC(=O)[C@H](c1cccc(NCCCNC(=O)CCCCCNC(=O)CN2CCC(NC(=O)CN3CCN(CC(=O)O)CCN(CC(=O)O)CCN(CC(=O)O)CC3)CC2)c1)N1Cc2ccccc2C1)C(=O)NCc1ccc(O)cc1 [compound 28, 2,2′,2″-(10-(2-((1-(2-((6-((3-((3-((1S,4R,Z)-9-amino-4-((4-hydroxybenzyl)carbamoyl)-1-(isoindolin-2-yl)-2,11,16-trioxo-3,8,10,12,15-pentaazaoctadec-9-en-1-yl)phenyl)amino)propyl)amino)-6-oxohexyl)amino)-2-oxoethyl)piperidin-4-yl)amino)-2-oxoethyl)-1,4,7,10-tetraazacyclododecane-1,4,7-triyl)triacetic acid] | > 8.00 |
| N=C(N)NCCC[C@@H](NC(=O)[C@H](c1ccccc1)N1Cc2ccccc2C1=O)C(=O)NCc1ccc(O)cc1 [71A, (R)-5-guanidino-N-(4-hydroxybenzyl)-2-((S)-2-(1-oxoisoindolin-2-yl)-2-phenylacetamido)pentanamide] | < 6.00 |
| CCNC(=O)/N=C(/N)NCCC[C@@H](NC(=O)C(c1ccccc1)N1Cc2ccccc2C1)C(=O)NCc1c(F)cc(O)cc1F (stereo partly drawn) [compound 67, (2R)—N-(2,6-difluoro-4-hydroxybenzyl)-5-((Z)-2-(ethylcarbamoyl)guanidino)-2-(2-(isoindolin-2-yl)-2-phenylacetamido)pentanamide] | > 8.00 |
| CCCC1CCN([C@H](C(=O)N[C@H](CCCNC(=N)N)C(=O)NCc2ccc(O)cc2)c2ccccc2)CC1 [compound 78, (R)-5-guanidino-N-(4-hydroxybenzyl)-2-((S)-2-phenyl-2-(4-propylpiperidin-1-yl)acetamido)pentanamide] | 6.00 to 7.00 |
| CCC(=O)NCCNC(=O)/N=C(/N)NCCC[C@@H](NC(=O)[C@H](c1ccccc1)N1Cc2cccc(NCCCNC(=O)C[C@H]3NC(=O)[C@@H](CCCNC(=O)CN4CCN(CC(=O)O)CCN(CC(=O)O)CCN(CC(=O)O)CC4)NC3=O)c2C1)C(=O)NCc1c(F)cc(O)cc1F [compound 40, 2,2′,2″-(10-(2-((3-((2R,5R)-5-(2-((3-((2-((1S,4R,Z)-9-amino-4-((2,6-difluoro-4-hydroxybenzyl)carbamoyl)-2,11,16-trioxo-1-phenyl-3,8,10,12,15-pentaazaoctadec-9-en-1-yl)isoindolin-4-yl)amino)propyl)amino)-2-oxoethyl)-3,6-dioxopiperazin-2-yl)propyl)amino)-2-oxoethyl)-1,4,7,10-tetraazacyclododecane-1,4,7-triyl)triacetic acid] | > 8.00 |
| N=C(N)NCCC[C@@H](NC(=O)C(c1ccccc1)N1CCCCC1)C(=O)NCc1ccc(O)cc1 (stereo partly drawn) [compound 72, (2R)-5-guanidino-N-(4-hydroxybenzyl)-2-(2-phenyl-2-(piperidin-1-yl)acetamido)pentanamide] | 6.00 to 7.00 |
| CCC(=O)NCCNC(=O)/N=C(/N)NCCC[C@@H](NC(=O)[C@H](c1cccc(NCCCNC(=O)CN(C)C(=O)CN(C)C(=O)CN(C)C(=O)CN2CCN(CC(=O)O)CCN(CC(=O)O)CCN(CC(=O)O)CC2)c1)N1Cc2ccccc2C1)C(=O)NCc1ccc(O)cc1 [compound 21, 2,2′,2″-(10-(15-((3-((1S,4R,Z)-9-amino-4-((4-hydroxybenzyl)carbamoyl)-1-(isoindolin-2-yl)-2,11,16-trioxo-3,8,10,12,15-pentaazaoctadec-9-en-1-yl)phenyl)amino)-3,6,9-trimethyl-2,5,8,11-tetraoxo-3,6,9,12-tetraazapentadecyl)-1,4,7,10-tetraazacyclododecane-1,4,7-triyl)triacetic acid] ({DOTA}-[Sar][Sar][Sar][X2][dArg(Nω-CONH(CH2)2NHCOEt)]-{NH(4-OH-benzyl)}) | > 8.00 |
| CC(C)(C)C1CCN(C(C(=O)N[C@H](CCCNC(=N)N)C(=O)NCc2ccc(O)cc2)c2ccccc2)CC1 (stereo partly drawn) [compound 80, (2R)-2-(2-(4-(tert-butyl)piperidin-1-yl)-2-phenylacetamido)-5-guanidino-N-(4-hydroxybenzyl)pentanamide] | 7.00 to 8.00 |
| N=C(N)NCCC[C@@H](NC(=O)C(c1ccccc1)N1CCC2(CCCC2)CC1)C(=O)NCc1ccc(O)cc1 (stereo partly drawn) [compound 84, (2R)-5-guanidino-N-(4-hydroxybenzyl)-2-(2-phenyl-2-(8-azaspiro[4.5]decan-8-yl)acetamido)pentanamide] | 6.00 to 7.00 |
| CCNC(=O)/N=C(/N)NCCC[C@@H](NC(=O)C(c1ccccc1)N1CCC(C(C)(C)C)CC1)C(=O)NCc1ccc(O)cc1 (stereo partly drawn) [compound 91, (2R)-2-(2-(4-(tert-butyl)piperidin-1-yl)-2-phenylacetamido)-5-((Z)-2-(ethylcarbamoyl)guanidino)-N-(4-hydroxybenzyl)pentanamide] | > 8.00 |
| CCC(=O)NCCNC(=O)/N=C(/N)NCCC[C@@H](NC(=O)[C@H](c1ccc(OCCCN2CCN(C(=O)CCCCCNC(=O)CN3CCN(CC(=O)O)CCN(CC(=O)O)CCN(CC(=O)O)CC3)CC2)cc1)N1Cc2ccccc2C1)C(=O)NCc1c(F)cc(O)cc1F [compound 39, 2,2′,2″-(10-(2-((6-(4-(3-(4-((1S,4R,Z)-9-amino-4-((2,6-difluoro-4-hydroxybenzyl)carbamoyl)-1-(isoindolin-2-yl)-2,11,16-trioxo-3,8,10,12,15-pentaazaoctadec-9-en-1-yl)phenoxy)propyl)piperazin-1-yl)-6-oxohexyl)amino)-2-oxoethyl)-1,4,7,10-tetraazacyclododecane-1,4,7-triyl)triacetic acid] | > 8.00 |
| N=C(N)NCCC[C@@H](NC(=O)[C@H](c1ccccc1)N1Cc2ccccc2C1)C(=O)NCc1c(F)cc(O)cc1F [compound 69, (R)—N-(2,6-difluoro-4-hydroxybenzyl)-5-guanidino-2-((S)-2-(isoindolin-2-yl)-2-phenylacetamido)pentanamide] | > 8.00 |
| CCC(=O)NCCNC(=O)/N=C(/N)NCCC[C@@H](NC(=O)[C@H](c1ccc(OCCCNc2c(NCCNC(=O)CN3CCN(CC(=O)O)CCN(CC(=O)O)CCN(CC(=O)O)CC3)c(=O)c2=O)cc1)N1Cc2ccccc2C1)C(=O)NCc1ccc(O)cc1 [compound 16, 2,2′,2″-(10-(2-((2-((2-((3-(4-((1S,4R,Z)-9-amino-4-((4-hydroxybenzyl)carbamoyl)-1-(isoindolin-2-yl)-2,11,16-trioxo-3,8,10,12,15-pentaazaoctadec-9-en-1-yl)phenoxy)propyl)amino)-3,4-dioxocyclobut-1-en-1-yl)amino)ethyl)amino)-2-oxoethyl)-1,4,7,10-tetraazacyclododecane-1,4,7-triyl)triacetic acid] | > 8.00 |
| CCC(=O)NCCNC(=O)/N=C(/N)NCCC[C@@H](NC(=O)[C@H](c1cccc(NCCCNC(=O)CCC(=O)NCCNC(=O)CN2CCN(CC(=O)O)CCN(CC(=O)O)CCN(CC(=O)O)CC2)c1)N1Cc2ccccc2C1)C(=O)NCc1ccc(O)cc1 [compound 26, 2,2′,2″-(10-(2-((2-(4-((3-((3-((1S,4R,Z)-9-amino-4-((4-hydroxybenzyl)carbamoyl)-1-(isoindolin-2-yl)-2,11,16-trioxo-3,8,10,12,15-pentaazaoctadec-9-en-1-yl)phenyl)amino)propyl)amino)-4-oxobutanamido)ethyl)amino)-2-oxoethyl)-1,4,7,10-tetraazacyclododecane-1,4,7-triyl)triacetic acid] | > 8.00 |
| CCC(=O)NCCNC(=O)/N=C(/N)NCCC[C@@H](NC(=O)[C@H](c1ccc(OCCCNc2c(NCCCCCCNC(=O)CN3CCN(CC(=O)O)CCN(CC(=O)O)CCN(CC(=O)O)CC3)c(=O)c2=O)cc1)N1Cc2ccccc2C1)C(=O)NCc1c(F)cc(O)cc1F [compound 37, 2,2′,2″-(10-(2-((6-((2-((3-(4-((1S,4R,Z)-9-amino-4-((2,6-difluoro-4-hydroxybenzyl)carbamoyl)-1-(isoindolin-2-yl)-2,11,16-trioxo-3,8,10,12,15-pentaazaoctadec-9-en-1-yl)phenoxy)propyl)amino)-3,4-dioxocyclobut-1-en-1-yl)amino)hexyl)amino)-2-oxoethyl)-1,4,7,10-tetraazacyclododecane-1,4,7-triyl)triacetic acid] | > 8.00 |
| CCC(=O)NCCNC(=O)/N=C(/N)NCCC[C@@H](NC(=O)C(c1cccc(NC(=O)CCCNC(=O)[C@@H](CO)NC(=O)CCNC(=O)CN2CCN(CC(=O)O)CCN(CC(=O)O)CCN(CC(=O)O)CC2)c1)N1Cc2ccccc2C1)C(=O)NCc1c(F)cc(O)cc1F (single isomer, unassigned) [32A] | > 8.00 |
| CC1(C)CCCN(C(C(=O)N[C@H](CCCNC(=N)N)C(=O)NCc2ccc(O)cc2)c2ccccc2)C1 (stereo partly drawn) [compound 75, (2R)-2-(2-(3,3-dimethylpiperidin-1-yl)-2-phenylacetamido)-5-guanidino-N-(4-hydroxybenzyl)pentanamide] | 6.00 to 7.00 |
| CCC(=O)NCCNC(=O)/N=C(/N)NCCC[C@@H](NC(=O)[C@H](c1ccccc1)N1Cc2cccc(NC(=O)CCCNC(=O)CCCCCNC(=O)CN3CCN(CC(=O)O)CCN(CC(=O)O)CCN(CC(=O)O)CC3)c2C1)C(=O)NCc1c(F)cc(O)cc1F [compound 9, 2,2′,2″-(10-(2-((6-((4-((2-((1S,4R,Z)-9-amino-4-((2,6-difluoro-4-hydroxybenzyl)carbamoyl)-2,11,16-trioxo-1-phenyl-3,8,10,12,15-pentaazaoctadec-9-en-1-yl)isoindolin-4-yl)amino)-4-oxobutyl)amino)-6-oxohexyl)amino)-2-oxoethyl)-1,4,7,10-tetraazacyclododecane-1,4,7-triyl)triacetic acid] | > 8.00 |
| CCC(=O)NCCNC(=O)/N=C(/N)NCCC[C@@H](NC(=O)[C@H](c1cccc(NCCCNC(=O)[C@H](N)CCCCNC(=O)CN2CCN(CC(=O)O)CCN(CC(=O)O)CCN(CC(=O)O)CC2)c1)N1Cc2ccccc2C1)C(=O)NCc1ccc(O)cc1 [compound 25, 2,2′,2″-(10-(2-(((R)-5-amino-6-((3-((3-((1S,4R,Z)-9-amino-4-((4-hydroxybenzyl)carbamoyl)-1-(isoindolin-2-yl)-2,11,16-trioxo-3,8,10,12,15-pentaazaoctadec-9-en-1-yl)phenyl)amino)propyl)amino)-6-oxohexyl)amino)-2-oxoethyl)-1,4,7,10-tetraazacyclododecane-1,4,7-triyl)triacetic acid] | > 8.00 |
